Results on six compounds are retold here after US20260007681A1, “INDOLE DERIVATIVES AS ESTROGEN RECEPTOR DEGRADERS” (REGENTS OF THE UNIVERSITY OF MICHIGAN, priority 2022, published 2026).

This assay addresses ER (Homo sapiens (Human), UniProt P03372). In words: Western blot analysis (Compounds B1-B278). In kind it is cell-based. Conditions: ER degradation by traditional Western blot; DC50 classes. The gist of the method: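 Compound-treated cells were lysed in RIPA buffer (Tris.HCl pH 7.6, 1% NP-40, deoxycholate, 0.1% SDS) with protease inhibitors; equal protein was resolved on 10% SDS-PAGE, transferred to PVDF and immunoblotted. Band intensities were quantified and normalized to GAPDH.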

ER, sequence (P03372 whole entry): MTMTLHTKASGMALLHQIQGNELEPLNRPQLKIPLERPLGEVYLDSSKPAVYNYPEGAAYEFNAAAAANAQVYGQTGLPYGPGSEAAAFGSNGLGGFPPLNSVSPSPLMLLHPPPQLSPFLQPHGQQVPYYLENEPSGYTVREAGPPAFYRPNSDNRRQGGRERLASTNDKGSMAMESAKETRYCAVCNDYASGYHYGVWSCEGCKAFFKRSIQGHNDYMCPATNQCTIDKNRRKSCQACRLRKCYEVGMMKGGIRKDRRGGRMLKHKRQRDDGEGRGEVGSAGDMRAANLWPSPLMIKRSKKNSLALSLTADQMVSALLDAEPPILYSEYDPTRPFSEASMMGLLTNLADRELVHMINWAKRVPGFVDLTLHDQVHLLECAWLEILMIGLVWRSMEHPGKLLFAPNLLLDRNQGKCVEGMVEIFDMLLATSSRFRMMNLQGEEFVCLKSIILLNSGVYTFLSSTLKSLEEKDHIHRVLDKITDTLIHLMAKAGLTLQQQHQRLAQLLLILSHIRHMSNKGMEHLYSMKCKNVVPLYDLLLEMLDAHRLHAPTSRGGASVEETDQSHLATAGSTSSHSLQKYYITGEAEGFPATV

For the compound `C[C@@H]1Cc2c([nH]c3ccccc23)[C@@H](c2c(F)cc(N3CCC(N4CCC(C(=O)N5Cc6cc7c(cc6C5)C(=O)N(C5CCC(=O)NC5=O)C7=O)CC4)C3)cc2F)N1CC(F)F` (stereo partly drawn) [Compound B50, 6-(1-(1-(4-((1R,3R)-2-(2,2-difluoroethyl)-3-methyl-2,3,4,9-tetrahydro-1H-pyrido[3,4-b]indol-1-yl)-3,5-difluorophenyl)pyrrolidin-3-yl)piperidine-4-carbonyl)-2-(2,6-dioxopiperidin-3-yl)-6,7-dihydropyrrolo[3,4-f]isoindole-1,3(2H,5H)-dione], the “Traditional Western Degradation Potency” value is “C (“C”: >100 nM)”.
The same measure for `C[C@@H]1Cc2c([nH]c3ccccc23)[C@@H](c2c(F)cc(N3CCC4(CC3)CN(C(=O)CN3Cc5cc6c(cc5C3)C(=O)N(C3CCC(=O)NC3=O)C6=O)C4)cc2F)N1CC(F)F` (stereo partly drawn) [Compound B51, 6-(2-(7-(4-((1R,3R)-2-(2,2-difluoroethyl)-3-methyl-2,3,4,9-tetrahydro-1H-pyrido[3,4-b]indol-1-yl)-3,5-difluorophenyl)-2,7-diazaspiro[3.5]nonan-2-yl)-2-oxoethyl)-2-(2,6-dioxopiperidin-3-yl)-6,7-dihydropyrrolo[3,4-f]isoindole-1,3(2H,5H)-dione]: “A (“A”: <10 nM)”.
The same measure for `C[C@@H]1Cc2c([nH]c3ccccc23)[C@@H](c2c(F)cc(N3CCC4(CCN(C(=O)CN5Cc6cc7c(cc6C5)C(=O)N(C5CCC(=O)NC5=O)C7=O)CC4)CC3)cc2F)N1CC(F)F` (stereo partly drawn) [Compound B52, 6-(2-(9-(4-((1R,3R)-2-(2,2-difluoroethyl)-3-methyl-2,3,4,9-tetrahydro-1H-pyrido[3,4-b]indol-1-yl)-3,5-difluorophenyl)-3,9-diazaspiro[5.5]undecan-3-yl)-2-oxoethyl)-2-(2,6-dioxopiperidin-3-yl)-6,7-dihydropyrrolo[3,4-f]isoindole-1,3(2H,5H)-dione]: “A (“A”: <10 nM)”; for `C[C@@H]1Cc2c([nH]c3ccccc23)[C@@H](c2c(F)cc(N3CCC(C(=O)N4CCC(CN5Cc6cc7c(cc6C5)C(=O)N(C5CCC(=O)NC5=O)C7=O)CC4)CC3)cc2F)N1CC(F)F` (stereo partly drawn) [Compound B53, 6-((1-(1-(4-((1R,3R)-2-(2,2-difluoroethyl)-3-methyl-2,3,4,9-tetrahydro-1H-pyrido[3,4-b]indol-1-yl)-3,5-difluorophenyl)piperidine-4-carbonyl)piperidin-4-yl)methyl)-2-(2,6-dioxopiperidin-3-yl)-6,7-dihydropyrrolo[3,4-f]isoindole-1,3(2H,5H)-dione]: “B (“B”: 10-100 nM)”.
The same measure for `C[C@@H]1Cc2c([nH]c3ccccc23)[C@@H](c2c(F)cc(N3CCC(C(=O)N4CCC(N5Cc6cc7c(cc6C5)C(=O)N(C5CCC(=O)NC5=O)C7=O)CC4)CC3)cc2F)N1CC(F)F` (stereo partly drawn) [Compound B54, 6-(1-(1-(4-((1R,3R)-2-(2,2-difluoroethyl)-3-methyl-2,3,4,9-tetrahydro-1H-pyrido[3,4-b]indol-1-yl)-3,5-difluorophenyl)piperidine-4-carbonyl)piperidin-4-yl)-2-(2,6-dioxopiperidin-3-yl)-6,7-dihydropyrrolo[3,4-f]isoindole-1,3(2H,5H)-dione]: “A (“A”: <10 nM)”; for `C[C@@H]1Cc2c([nH]c3ccccc23)[C@@H](c2c(F)cc(N3CC4(CC(C(=O)N5CCC(CN6Cc7cc8c(cc7C6)C(=O)N(C6CCC(=O)NC6=O)C8=O)CC5)C4)C3)cc2F)N1CC(F)F` (stereo partly drawn) [Compound B55, 6-((1-(2-(4-((1R,3R)-2-(2,2-difluoroethyl)-3-methyl-2,3,4,9-tetrahydro-1H-pyrido[3,4-b]indol-1-yl)-3,5-difluorophenyl)-2-azaspiro[3.3]heptane-6-carbonyl)piperidin-4-yl)methyl)-2-(2,6-dioxopiperidin-3-yl)-6,7-dihydropyrrolo[3,4-f]isoindole-1,3(2H,5H)-dione]: “A (“A”: <10 nM)”.
